Test results reported in patent US20030032636A1, “Combination of a serotonin reuptake inhibitor and a 5-HT2C antagonist, inverse agonist or partial agonist” (H. Lundbeck A/S, priority 1999, published 2003).

Tests used:
5-HT2C receptor = biological target: T1, 5-HT2C receptor (Rattus norvegicus, UniProt P08909); experiment: 5-HT2C binding (3H-Mesulergine, SR-3T3 cells); conditions: 0.5 nM 3H-Mesulergine
T1 construct: host or cells: SR-3T3 cells
T1 sequence (P08909 33-460): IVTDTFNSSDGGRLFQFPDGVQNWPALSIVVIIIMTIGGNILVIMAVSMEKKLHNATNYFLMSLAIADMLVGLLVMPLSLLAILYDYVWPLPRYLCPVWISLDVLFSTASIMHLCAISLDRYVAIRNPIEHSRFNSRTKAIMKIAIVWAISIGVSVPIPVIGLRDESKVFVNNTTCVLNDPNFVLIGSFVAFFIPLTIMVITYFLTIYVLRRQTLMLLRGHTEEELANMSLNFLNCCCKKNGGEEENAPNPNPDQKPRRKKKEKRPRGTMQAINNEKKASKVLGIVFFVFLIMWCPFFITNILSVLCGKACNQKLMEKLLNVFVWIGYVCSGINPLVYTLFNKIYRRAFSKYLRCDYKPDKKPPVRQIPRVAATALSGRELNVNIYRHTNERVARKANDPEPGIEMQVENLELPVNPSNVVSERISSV
Procedure: The cell suspension is centrifuged and the pellet resuspended in 50 mM Tris, HCl, pH 7.7 and stored at −80° C. For experimental use, the frozen cell pellet is thawed and homogenised with an Ultra Turrax for 10-15 seconds. 1.5 mg cell preparation is incubated with 0.5 nM 3H-Mesulergine for 60 minutes at 37° C. Incubation is terminated by rapid filtration through Filtermat B filters and bound radioactivity is determined in a Tricarb scintillation counter.

[1] = tested on: 5-HT levels in rat ventral hippocampus; experiment: Microdialysis, ventral hippocampus 5-HT levels; type: in vivo; conditions: for enhancement of the effect of citalopram on ventral hippocampal 5-HT levels: 1 μmol/kg simultaneous with 10 μmol/kg citalopram; for serotonin levels as measured in microdialysis experiments: administered alone (summary statement); for effect on rat ventral hippocampal 5-HT levels: 1 μmol/kg subcutaneous; for level of extracellular serotonin: in combination with SSRIs (summary statement)
Text: Male albino rats of a Wistar-derived strain (285-320 g; Harlan, Zeist, The Netherlands) were used for the experiments. The rats were housed in plastic cages (35×35×40 cm), and had free access to food and water. The experiments are concordant with the declarations of Helsinki and were approved by the Animal Care Committee of the Faculty of Mathematics and Natural Science of the University of Groningen.
The following drugs were used: Citalopram hydrobromide and internal standard (kindly donated by Lundbeck (Copenhagen, Denmark), courtesy Dr. Sanchez), ritanserin and ketanserin tartrate (RBI, Natick, USA). […] All drugs were administered in a volume of 1 mL per kg.
Microdialysis experiments were performed using home made I-shaped probes, made of polyacrylonitrile I sodium methyl sulphonate copolymer dialysis fiber (i.d. 220 μm, o.d. […], AN 69, Hospal, Italy). The exposed length of the membranes was 4 mm. […] Lidocaine-HCl, 10% (m/v) was used for local anaesthesia. Rats were placed in a stereotaxic frame (Kopf, USA), and probes were inserted into the ventral hippocampus (coordinates: IA: +3.7 mm, lateral: +4.8 mm, ventral: −8.0 mm from the dura mater, Paxinos and Watson, 1982) and secured with dental cement.
Probes were perfused with artificial CSF containing 147 mM NaCl, 3.0 mM KCl, 1.2 mM CaCl2, and 1.2 mM MgCl2, at a flow-rate of 1.5 μL/min (Harvard apparatus, South Natick, Ma., USA). Samples were collected on-line in a 20 μL loop and injected automatically onto the column every 15 min.
Serotonin analysis: 5-HT was analysed using HPLC with electrochemical detection. The HPLC pump (Shimadzu LC-10 AD liquid chromatograph) was connected to a reversed phase column (phenomenex hypersil 3: 3 μm, 100×2.0 mm, C18, Bester, Amstelveen, the Netherlands) followed by an electrochemical detector (Antec Leyden, Leiden, the Netherlands), working at a potential setting of 500 mV vs. Ag/AgCl reference. The mobile phase consisted of 5 g/L di-ammoniumsulfate, 500 mg/L ethylene diamino tetra acetic acid (EDTA), 50 mg/L heptane sulphonic acid and 30 μl/L of triethylamine, at a pH of 4.65 and 4.5% (w/w) methanol and water. Flow-rate of the mobile phase was 0.4 ml/min. The detection limit was 0.5 fmol 5-HT per 20 μL sample (signal to noise ratio 3).
Level of significance level was set at p<0. 05.

[2] = tested on: morphine-induced DA release in rat nucleus accumbens; conditions: cited from earlier work
[3] = tested on: levels of DA, NE and 5-HT in rat frontal cortex; conditions: cited from earlier work
in vivo = conditions: rat, sc
Text: In the pharmacokinetic experiments, blood was drawn through a canula made of silicon tubing, which was inserted into the right jugular vein for 3.8 cm. The tubing was transferred subcutaneously to the scull of the rat, and a stainless steel inlet was connected to the tubing. The inlet was mounted on the skull with dental cement and surgical screws. After insertion, canulas were filled with a PVP solution (55% polyvinylpyrrolidon in 500 IE/mL heparin) in saline to prevent blood clotting.
Pharmacokinetic experiments: Rats were allowed to recover for at least 24 h. […]
Citalopram analysis: Citalopram was measured according to Øyehaug et al. (1982), with minor modifications. […]
With the experiments in which 5 mL plasma was obtained via the vacutainer, a similar protocol was used, but the plasma sample was now extracted three times with 10 mL of ether. An HPLC/auto-injector (1084B Liquid Chromatograph, Hewlett-Packard) was used, in combination with a fluorescence detector (470 Scanning Fluorescence detector, Waters, England) operating at an absorption wavelength of 240 nm, an emission wavelength of 296 nm, and a slit-width of 12 nm. […]
Ketanserin analysis: Ketanserin was measured using liquid-liquid extraction, followed by reversed phase chromatography in conjunction with fluorescence detection. […]

[4] = tested on: prefrontal cortex 5-HT levels; experiment: Microdialysis, prefrontal cortex 5-HT levels; type: in vivo, rat
[5] = tested on: mouse forced swimming test; conditions: prior administration; ritanserin 4 mg/kg i.p., ketanserin 8 mg/kg i.p.; cited from earlier work
[6] = combined with fluoxetine; cited from earlier work
5-HT2C receptors = conditions: cited from earlier work
[7] = tested on: NE release in rat hippocampus; conditions: cited from earlier work

Question: What does the source list for `Cc1ccc2c(c1)c(-c1ccc(F)cc1)c(C)n2C1CCN(CCN2CCNC2=O)CC1` [Lu 29066, 2,5-dimethyl-3-(4-fluorophenyl)-1-[1-[2-(imidazolidin-2-on-1-yl)ethyl]-piperidin-4-yl]-1H-indole]?
Answer: Ki (5-HT2C receptor): 6.9 nM; enhancement of the effect of citalopram on ventral hippocampal 5-HT levels [1]: significant enhancement of the effect of citalopram; serotonin levels as measured in microdialysis experiments [1]: no increase; effect on rat ventral hippocampal 5-HT levels ([1]; alone): had no effect; level of extracellular serotonin [1]: synergistically act to increase

Question: With `Clc1cncc(N2CCNCC2)n1` [MK-212] as the compound, how does the “morphine-induced DA release” value [2] read?
Answer: inhibited

Question: With `COc1cc(OC)c(C(=O)CCCCN2CCC3(CC2)NC(=O)NC3=O)cc1NS(=O)(=O)c1ccc(C(F)(F)F)cc1` [RS 102221] as the compound, how does the Ki (5-HT2C receptor) read?
Answer: 0.56 nM

Question: And the “enhancement of the effect of citalopram on ventral hippocampal 5-HT levels” value [1]?
Answer: significant enhancement of the effect of citalopram

Question: What about the “serotonin levels as measured in microdialysis experiments” value [1] of the same compound?
Answer: no increase

Question: What about the “effect on rat ventral hippocampal 5-HT levels” value ([1]; alone) of the same compound?
Answer: had no effect

Question: And the “level of extracellular serotonin” value [1]?
Answer: synergistically act to increase

Question: For `C[C@H](N)Cn1ccc2cc(F)c(Cl)cc21` [Ro 60-0175], which “levels of both DA and NE” value [3] is on record?
Answer: suppressed

Question: What about the “levels of serotonin (5-HT)” value [3] of the same compound?
Answer: without modifying

Question: For `Cc1cc2c(cc1Cl)N(C(=O)Nc1ccc(Oc3cccnc3C)nc1)CC2` [SB-242084], which “levels of both DA and NE” value [3] is on record?
Answer: increased

Question: What about the “levels of serotonin (5-HT)” value [3] of the same compound?
Answer: without modifying

Question: For `CN(C)CCCC1(c2ccc(F)cc2)OCc2cc(C#N)ccc21` (centres unmarked) [citalopram], which half-life (in vivo; 10 umol/kg) is on record?
Answer: ~2 h

Question: For `O=C1NCCN1CCN1CCN([C@@H]2C[C@@H](c3ccc(F)cc3)c3ccccc32)CC1` [irindalone], which Ki (5-HT2C receptor) is on record?
Answer: 19 nM

Question: Which Ki (5-HT2C receptor) does the source give for `O=C(c1ccc(F)cc1)C1CCN(CCn2c(=O)[nH]c3ccccc3c2=O)CC1` [ketanserin] here?
Answer: 14 nM

Question: What about the “augmentation of the effect of citalopram on ventral hippocampal 5-HT levels” value (“augmentation of the effect of citalopram” below) ([1]; 1 nmol/kg co-administered with 10 μmol/kg citalopram) of the same compound?
Answer: did not augment the effect of citalopram

Question: And the “augmentation of the effect of citalopram” value ([1]; 10 nmol/kg co-administered with 10 μmol/kg citalopram)?
Answer: significantly enhanced the effect of citalopram

Question: And the “augmentation of the effect of citalopram” value ([1]; 100 nmol/kg co-administered with 10 μmol/kg citalopram)?
Answer: significantly enhanced the effect of citalopram

Question: What about the “enhancement of the effect of fluoxetine on ventral hippocampal 5-HT levels” value ([1]; 100 nmol/kg simultaneous with 5 mg/kg fluoxetine) of the same compound?
Answer: significant enhancement of the effect of fluoxetine

Question: And the “serotonin levels as measured in microdialysis experiments” value [1]?
Answer: no increase

Question: And the “effect on ventral hippocampal 5-HT levels” value ([1]; alone, 100 nmol/kg subcutaneous)?
Answer: had no effect

Question: And the “augmentation of the SSRI induced increase in 5-HT levels, ventral hippocampus” value ([1]; different doses, simultaneous with 10 μmol/kg citalopram)?
Answer: dose dependent augmentation

Question: And the “level of extracellular serotonin” value [1]?
Answer: synergistically act to increase

Question: What about the “augmentation of the citalopram induced increase in cortical 5-HT levels” value ([4]; 1 nmol/kg co-administered with citalopram) of the same compound?
Answer: did not augment

Question: What about the “augmentation of the citalopram induced increase in cortical 5-HT levels” value ([4]; 10 nmol/kg co-administered with citalopram, effect did not reach significance) of the same compound?
Answer: transiently enhanced the effect of citalopram

Question: And the “augmentation of the citalopram induced increase in cortical 5-HT levels” value ([4]; 100 nmol/kg simultaneous with citalopram)?
Answer: significant enhancement of the effect of citalopram

Question: What about the “effect on prefrontal cortex 5-HT levels” value ([4]; alone, dose not stated) of the same compound?
Answer: did not show any effect

Question: And the “potentiation of the effects of imipramine and desipramine (16 mg/kg i.p.)” value [5]?
Answer: potentiated

Question: And the half-life (in vivo; 100 nmol/kg)?
Answer: ~1.5 h

Question: Which results are given for `CN1CCN2c3ccccc3Cc3ccccc3C2C1` (centres unmarked) [mianserin]?
Answer: efficacy of fluoxetine in the treatment of treatment resistant patients [6]: augment the efficacy of fluoxetine; latency of onset of antidepressive effect [6]: may shorten the latency of onset

Question: With `CCc1nn(CCCN2CCN(c3cccc(Cl)c3)CC2)c(=O)n1CCOc1ccccc1` [nefazodone] as the compound, how does the Ki (5-HT2C receptor) read?
Answer: 33 nM

Question: With `Fc1ccc([C@@H]2CCNC[C@H]2COc2ccc3c(c2)OCO3)cc1` [paroxetine] as the compound, how does the “effect of chronic administration on 5-HT2C receptors” value (5-HT2C receptors) read?
Answer: functional desensitisation

Question: For `Cc1nc2sccn2c(=O)c1CCN1CCC(=C(c2ccc(F)cc2)c2ccc(F)cc2)CC1` [ritanserin], which “augmentation of the effect of citalopram” value ([1]; 10 μmol/kg i.p. given 60 minutes prior to 10 μmol/kg s.c. citalopram) is on record?
Answer: augmented the effect of citalopram significantly

Question: What about the “effect on 5-HT levels in rat ventral hippocampus” value ([1]; alone, 10 μmol/kg intraperitoneal) of the same compound?
Answer: did not have any effect

Question: And the “level of extracellular serotonin” value [1]?
Answer: synergistically act to increase

Question: And the “quipazine-induced decrease of NE release” value [7]?
Answer: antagonised

Question: What about the “potentiation of the effects of imipramine and desipramine (16 mg/kg i.p.)” value [5] of the same compound?
Answer: potentiated
